Experimental findings from paper PMC4813465, “Selective Inhibition of the Mitochondrial Permeability Transition Pore Protects against Neurodegeneration in Experimental Multiple Sclerosis” (The Journal of Biological Chemistry, 2015) are described below.

Data set [1] concerns rat cortical neurons. As to the kind of experiment: Mitochondrial membrane potential (TMRM) in rat cortical neurons. The format is cell-based. The text has this: The minimum value after the addition of compound (prior to the addition of FCCP) was taken, and this was expressed as a percentage (using the baseline as 100% and FCCP as 0%) and then normalized to DMSO (100%).
Data set [2] deals with splenocytes from MOG 35-55 immunized ABH mice. As to the kind of experiment: Myelin antigen (MOG 35-55)-induced T cell proliferation. The format is cell-based, mouse. Particulars: MOG residues 35–55, 5 μg/ml. As for the experimental part:
ABH mice were injected subcutaneously in the flank with 100 μg of myelin oligodendrocyte glycoprotein (MOG) peptide residues 35–55 (Cambridge Research Biochemicals Ltd., Billingham, UK) emulsified in Freund's adjuvant containing 200 μg of Mycobacterium tuberculosis H37Ra (Difco, Becton Dickinson, Oxford, UK) on days 0 and 7 ([69]). Spleens were collected and prepared and analyzed as above except that mitogens were replaced with 5 μg/ml MOG 35–55 peptide, and cells were incubated for 72 h before the addition of tritiated thymidine.

Data set [3] deals with TRIM-CypA (Homo sapiens, UniProt P62937+Q6PIZ9). As for the experimental part: Viral supernatant was collected 48 h post-transfection and stored at −80 °C.
TRIM-CypA, sequence (P62937 2-165, one chain of several): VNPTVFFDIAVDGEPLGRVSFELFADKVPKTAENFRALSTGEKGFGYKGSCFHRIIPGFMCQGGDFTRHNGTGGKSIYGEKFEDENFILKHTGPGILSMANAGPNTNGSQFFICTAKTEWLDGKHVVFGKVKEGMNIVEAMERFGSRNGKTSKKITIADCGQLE
To generate CRFK cells stably expressing N-terminally HA-tagged TRIM-CypA from an EXN-based vector, murine leukemia virus (MLV) vector was prepared as above, using pMDG, CMVi MLV gag-pol expression vector, and γ-retroviral expression vector encoding a fusion protein comprising human CypA downstream of owl monkey TRIM5 RBCC (EXN-TRIM-CypA) ([67]). CRFK cells, which are null for TRIM5α activity ([68]), were then transduced with vector, followed by selection of cells in 1 mg/ml G418 (Invitrogen).
Infectivity was measured by flow cytometry 48 h postinfection.

Data set [4] deals with experimental autoimmune encephalomyelitis. Description: Relapsing-progressive EAE in ABH mice (neurological score, RotaRod, neurofilament ELISA). The format is in vivo, mouse. As for the experimental part: Mice were injected subcutaneously with 1 mg of freeze-dried mouse spinal cord homogenate (SCH) in Freund's adjuvant on days 0 and 7 as described previously ([71]). After the initial paralytic disease and subsequent remission, a relapse was induced by a further injection of SCH in Freund's incomplete adjuvant on day 28 to induce a relapse 7 days later ([71]). Studies were randomized, blinded, and powered as described previously ([71]). Neurological scores were graded as 0 = normal, 1 = limp tail, 2 = impaired righting reflex, 3 = hind limb paresis, 4 = complete hind limb paralysis, and 5 = moribund/death ([71]). Results are expressed as mean ± S.E. maximum or minimum neurological score and mean day of onset ± S.D. The clinical scores are presented as the mean daily neurological score ± S.E. Differences in clinical scores were assessed using non-parametric, Mann-Whitney U statistics ([71]). Motor control and coordination were assessed on an accelerating (4–40 rpm, accelerating at 6 rpm/25 s) RotaRod (ENV-575M, Med Associates Inc., St. Albans, VT) as described previously ([71]). This was performed 1 day before induction of relapse and at the termination of the experiment on day 45. RotaRod assessment was performed blinded to treatment. Animals were randomized to vehicle or treatment based on their RotaRod scores. Results are expressed as mean ± S.E. time that animals maintained rotarod activity. Differences in rota activity and quantitative neurofilament ELISA were assessed using Student's t test incorporating tests for equality of variance using Sigmaplot (Systat Software, Inc., San Jose, CA) ([71]).
At the end of the experiment, the spinal cord was removed, and an ELISA for heavy chain neurofilament on spinal cord was performed. Total nerve content of each spinal cord was estimated following calibration against neurofilament protein standards as described previously ([71], [72]).
Neurofilament level as a validated correlate of spinal cord axonal content as determined by histology was determined as follows. […] Tissues were snap-frozen and stored at −80 °C before homogenization. Tissues were homogenized in a glass homogenizer in 1 ml/100 mg of spinal cord tissue wet weight homogenization buffer (0.2 mM PMSF, 1 mM EDTA, 1 mM EGTA, 4 M urea, 10 mM Tris-HCl (Sigma), pH 7.2) plus 1:100 HALT protease inhibitor mixture (Thermo Fisher Scientific) and further homogenized by sonication twice for 10 s (Cole-Parmer Instruments, Vernon Hills, IL). Samples were spun down at 13,000 rpm in a bench top centrifuge (Eppendorf), and the supernatant was collected and stored at −80 °C before neurofilament determination. Samples were thawed on ice, and an ELISA for heavy chain neurofilament was performed. Briefly, a 96-well plate was coated overnight at 4 °C with capture antibody (1:5000; SMI35 anti-neurofilament H, Cambridge Bioscience, Cambridge, UK) in coating buffer (0.15 M Na2CO3, 0.35 M NaHCO3 (Sigma), pH 9.6). Following one wash in wash buffer (150 mM NaCl, 10 mM Tris-HCl, 0.1% Tween 20 (Sigma), pH 7.5), nonspecific binding was blocked by incubation with 5% bovine serum albumin (Sigma) in wash buffer for 1 h at room temperature. Following a wash step, samples and standards (porcine neurofilament heavy chain, Chemicon International) were diluted in wash buffer with 1% bovine serum albumin and incubated on the plate for 1 h at room temperature. Following five wash steps, the detector antibody was applied (1:1000 rabbit anti-NF200, Sigma) and incubated for a further 1 h at room temperature. The plate was washed five times, and the reporter antibody was applied (1:1000 swine anti-rabbit HRP conjugate, DAKO). Following a final five washes, tetramethylbenzidine substrate (Sigma) was applied, and color production was measured on a BioTek Synergy HT plate reader at 450 nm.

Data set [5] concerns mitochondria of rat cortical neurons and isolated liver mitochondria. As to the kind of experiment: Mitochondrial functional parameters (membrane potential, oxygen consumption, ATP production) in cultured rat neurons and isolated mitochondria. The format is cell-based. As for the experimental part: Oxygen consumption was measured using Oroboros Oxygraph-2K as described previously ([62]). Prior to the assay, the Oxygraph chambers were calibrated with Miro5 buffer (0.5 mM EGTA, 3 mM MgCl2·6H2O, 60 mM potassium lactobionate, 20 mM taurine, 10 mM KH2PO4, 20 mM HEPES, 110 mM sucrose, 1 g/liter BSA (essentially fatty acid-free)). Isolated mitochondria were suspended in Miro5 (at 100–200 μg/ml) and loaded into the chamber together with substrates (malate, 2 mM; glutamate, 10 mM), and the O2 flow signal was allowed to stabilize to the basal respiration rate (∼10 min). […] Data were analyzed by subtracting the antimycin A respiration rate to give mitochondrial specific O2 flow and were then expressed as a percentage of the basal O2 flow.
Rat cortical neurons, cultured for 8–9 days, were incubated for 40 min at 37 °C with the cell-permeant cationic dye tetramethylrhodamine methyl ester (25 nM), and fluorescence was measured using the ImageXpress Micro XL system (Molecular Devices). […] The minimum value after the addition of compound (prior to the addition of FCCP) was taken, and this was expressed as a percentage (using the baseline as 100% and FCCP as 0%) and then normalized to DMSO (100%).
Freshly isolated mouse liver mitochondria were suspended in MSK buffer containing 10 μg/ml rhodamine 123 (dequench mode), at a concentration of 500 μg/ml, and plated in an opaque black 96-well plate. […]

The target of data set [6] is Ca2+-mediated PT pore formation (Mus musculus, UniProt Q99KR7). The note with it: liver mitochondria.
Ca2+-mediated PT pore formation, sequence (Q99KR7 30-206): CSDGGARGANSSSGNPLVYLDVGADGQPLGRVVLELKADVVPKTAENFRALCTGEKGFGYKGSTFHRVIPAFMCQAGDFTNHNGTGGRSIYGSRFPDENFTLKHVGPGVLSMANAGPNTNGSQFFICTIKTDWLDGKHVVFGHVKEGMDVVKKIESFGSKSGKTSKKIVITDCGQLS
Data set [7] has as its system T cell proliferative response in draining auricular lymph node. Description: In vivo T cell proliferation, oxazolone contact hypersensitivity. Also on record: species or system mouse. As for the experimental part: The contact sensitizer 4-ethoxymethylene-2-phenyl-2-oxazolin-5-one (oxazolone; Sigma) was dissolved (25 mg/ml) in 4:1 acetone/olive oil. Mice (n = 3/group) received epicutaneous application of either 25 μl of 2.5% oxazolone or acetone/olive oil on the dorsum of the ear on day 0 ([70]). The draining auricular lymph nodes were removed 3 days later, and the induced proliferative response was assessed as described previously. Briefly, 5 × 10^5 cells/well were cultured in RPMI 1640 medium with glutamate (Gibco®, Invitrogen Ltd., Paisley UK), supplemented with 0.5 mM sodium, in round-bottomed 96-well plates overnight at 37 °C in a humidified atmosphere of 5% CO2 in the presence of 1 μCi of [^3H]thymidine (PerkinElmer Life Sciences) per well. DNA synthesis was estimated using β-scintillation counting as above. […] Results are expressed as mean ± S.E. thymidine incorporation counts/min.

Data set [8] deals with CypA (Homo sapiens, UniProt P62937). As to the kind of experiment: Fluorescence polarization cyclophilin binding assay, CypA. The note with it: probe 45 nM, enzyme 40 nM. In general terms: In fluorescence polarisation assays a small probe gives low polarisation when free and higher when bound to something large.
CypA, sequence (P62937 whole entry, species assumed): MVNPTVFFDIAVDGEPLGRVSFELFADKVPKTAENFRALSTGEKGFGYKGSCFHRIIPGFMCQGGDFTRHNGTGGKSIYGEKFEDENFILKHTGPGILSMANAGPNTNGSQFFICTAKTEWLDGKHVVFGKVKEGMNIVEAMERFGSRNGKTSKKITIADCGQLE
Source text: Fluorescence polarization (FP) is inversely related to the molecular rotation of the fluorophore. Fluorophores linked to small molecules tumble faster and emit less polarized fluorescence than fluorophore-small molecules bound to proteins. FP is a convenient technique to measure affinity of ligands to cyclophilins ([59], [60]).
(§1) Titration of a single probe concentration against different enzyme concentrations was used to determine the dissociation constant (Kd). From this we also determined the enzyme concentration that would give a high enough polarization signal to measure binding affinities.
(§2) At least three replicates were used for each experiment. The percentage of DMSO in the total solution should remain lower than 1%. […] Measurements were taken after gain adjustment of control sample and 30-min incubation with a xenon flash light with filter settings for 485-nm excitation and 520-nm emission.
In data set [9] the target is K133I CypD (Homo sapiens, UniProt P30405, K175I). As to the kind of experiment: Fluorescence polarization cyclophilin binding assay, CypD. Particulars: probe 45 nM, enzyme 40 nM.
K133I CypD, sequence (P30405 43-207 K175I): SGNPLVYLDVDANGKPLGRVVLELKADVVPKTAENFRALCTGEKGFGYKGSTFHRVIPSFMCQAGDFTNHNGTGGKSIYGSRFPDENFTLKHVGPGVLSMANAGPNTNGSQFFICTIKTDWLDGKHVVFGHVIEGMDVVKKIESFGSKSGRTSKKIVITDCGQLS
Procedure: as §1, §2
Setting [10] is: before treatment (baseline of the JW47 group).

One may read the Ki as a measure of affinity in units of concentration, obtained from inhibition or displacement.

Each structure is given as a SMILES string.

In the case of `CC[C@@H]1NC(=O)[C@H]([C@H](O)[C@H](C)C/C=C/CCC[n+]2cccc3ccccc32)N(C)C(=O)[C@H](C(C)C)N(C)C(=O)[C@H](CC(C)C)N(C)C(=O)[C@H](CC(C)C)N(C)C(=O)[C@@H](C)NC(=O)[C@H](C)NC(=O)[C@H](CC(C)C)N(C)C(=O)[C@H](C(C)C)NC(=O)[C@H](CC(C)C)N(C)C(=O)CN(C)C1=O` [JW47, [Gly-(1S,2R,E)-8-quinolinium-1-hydroxy-2-methyloct-4-ene]^1 CsA], the “effect on mitochondria in cortical neurons” value in data set [1] (40 nM) is “not affected”; in [1] (1 μM), “significantly depolarized”. Further, the “concentration that inhibited neuronal mitochondrial membrane potential” value in data set [1] (rat cortical neurons) was 1 µM. Besides, the “immunosuppressive activity in antigen-driven proliferation assay” value in data set [2] is listed as “markedly less immunosuppressive activity compared with CsA”. Further, in data set [3], the “rescue of HIV-1 infectivity in TRIM-CypA cells” value was “no activity”. The “incidence of disease (relapse)” value in [4] (1 mg/kg intraperitoneally daily from day 33) was 14 of 14. The “onset of induced relapse” value in data set [4] (1 mg/kg intraperitoneally daily, SCH injection day 28, mean ± S.D.) worked out at 34.5 ± 0.7 days. Also, the “rotorod activity during the second remission after relapse” value in [4] (1 mg/kg intraperitoneally daily, day 45) turned out to be 135.0 ± 42.9 s. Moreover, the “minimal neurological score during the second remission” value in data set [4] (1 mg/kg intraperitoneally daily, p < 0.001 vs vehicle) was found to be 1.4 ± 0.3. In addition, the “maximal severity disease score” value in data set [4] (1 mg/kg intraperitoneally daily, score 0–5, mean ± S.E.) is 3.9 ± 0.1. Further, the “loss of nerves and axons within the spinal cord, neurofilament ELISA” value in [4] (1 mg/kg intraperitoneally daily, vs vehicle) was “lost significantly (p < 0.01) fewer nerves”. In addition, in data set [4] (setting [10]), the “minimal clinical score during the first remission” value is recorded as 0.6 ± 0.1. In addition, the “rotorod activity on day 27 during the first remission” value in data set [4] (setting [10]) is 168.8 ± 21.8 s. Besides, the “concentration up to which mitochondrial membrane potential, oxygen consumption and ATP production were not affected” value in [5] is recorded as “up to 200 nM”. Besides, the “effect on CRC, mitochondria from WT mice” value in data set [6] is “significantly increased”. Moreover, the “effect on T cell response, contact hypersensitivity model” value is “no effect” in data set [7] (0.1 mg/kg intraperitoneally daily), “no effect” in data set [7] (1 mg/kg intraperitoneally daily) and “inhibited the T cell response” in data set [7] (10 mg/kg intraperitoneally daily).

`C/C=C/C[C@@H](C)[C@@H](O)[C@H]1C(=O)N[C@@H](CC)C(=O)N(C)[C@H](Cc2ccc(C(=O)O)cc2)C(=O)N(C)[C@@H](CC(C)C)C(=O)N[C@@H](C(C)C)C(=O)N(C)[C@@H](CC(C)C)C(=O)N[C@@H](C)C(=O)N[C@H](C)C(=O)N(C)[C@@H](CC(C)C)C(=O)N(C)[C@@H](CC(C)C)C(=O)N(C)[C@@H](C(C)C)C(=O)N1C` [SmBzCsA]: the Ki was 236 ± 8.4 nM in data set [8] and 202 ± 14.1 nM in [9].
